Legend:
IDO1 [1] = biological target: T1, IDO1 (Homo sapiens, UniProt P14902); test: IDO1 enzyme kinetics assay (Lineweaver–Burk, Dixon plots); assay type: biochemical; conditions: L-Trp 0–50 µM, flavonoids 0–45 µM, read-out: κi
Experimental: The kinetics assay was performed by adding purified protein to the reaction mixture (200 µL) which contained a final concentration of potassium phosphate buffer (50 mM, pH 6.5), ascorbic acid (20 mM), catalase (10 mM), methylene blue (10 µM), and distilled water up to 200 µL. Various concentrations of L-Trp as substrate of IDO1 were added to the reaction mixture with four different concentrations of flavonoids (0–45 µM). After incubation at 37 °C for 1 h, the dissociation constant (κi) of the three flavonoids were determined by measuring the activity at five concentrations of L-Trp (0 to 50 µM).

IDO1 [2] = biological target: T1, IDO1; test: Thermal shift assay (SYPRO-Orange); assay type: binding; conditions: 30 µM compound, without L-Trp; read-out: increase of mean melting temperature (ΔTm) compared to DMSO-treated group
Experimental: The thermal stability of proteins was measured by SYPRO-Orange (Thermo Fisher Scientific, Waltham, MA) as previously described in Soderhole et al.[24]. Briefly, IDO 1 enzyme (5 µg/mL) was mixed with 30 µM of kushenol F (KF, 4), (2S)-2'-methoxy kurarinone (MK, 5), and kushenol E (KE, 6), or serially diluted KE (6) in 20 µL reaction buffer containing potassium phosphate buffer (50 mM) and sodium chloride (100 mM), and then incubated for 1 h. The measurement of protein denaturation via an increase in temperature was determined using real-time PCR device (CFX96 Real Time System, BioRad, Hercules, CA) using the FRET channel. In the presence of IDO1 enzyme, SYPRO-Orange has a maximum excitation near 490 nm and a maximum emission near 600 nm. The heating rate and fluorescence reading were 0.5 °C/10 s depending on the temperature range 25–95 °C.

IDO1 [3] = biological target: T1, IDO1; test: Cell-based IDO1 assay (Kyn production) in IFN-γ-treated HeLa cells; set-up: to induce endogenous IDO1 expression; endogenous in cells; host or cells: HeLa cells stimulated with IFN-γ; conditions: IFN-γ-treated (50 ng/mL, 24 h) HeLa cells, compound 6 h; mean ± SD; read-out: IC50 against cell-based IDO1 (Kyn production)
Experimental: HeLa (Human cervical cancer cells) cells were purchased from the American Type Culture Collection (ATCC) and cultured in DMEM supplemented with fetal bovine serum (FBS, 10%) and penicillin–streptomycin (1%).
HeLa cells were seeded into 48-well plates (2 × 10^4 cells/well). Next, the cells were stimulated with human recombinant IFN-γ (50 ng/mL, R&D Systems, Minneapolis, MN) in complete DMEM for 24 h. After replacing the medium with DMEM containing IFN-γ, the cells were treated with the flavonoids (1–6) or DMSO (0.5%, v/v) for 6 h, and then the supernatant (125 µL) from each well was transferred to a 96-well plate. The cell-based assay was similarly performed to the IDO1 enzyme assay.

IDO1 [4] = biological target: T1, IDO1; test: IDO1 enzyme assay; assay type: biochemical; set-up: The full-length of IDO1 gene was amplified by PCR; His tag; made in house; host or cells: Escherichia coli T7 strain, vector pET28a; conditions: recombinant human IDO1, L-Trp 200 µM, 37 °C, 1 h, mean ± SD; for IC50: read-out: His-hIDO1 IC50
Text: The Escherihia coli DH5α and T7 strain were used for gene cloning and protein production, respectively. The human IDO1 clone was provided from Korea Human Gene Bank, Medical Genomics Research Center, KRIBB, Korea. The full-length of IDO1 gene was amplified by PCR using pfu DNA polymerase (Thermo Fisher, , Waltham, MA). The PCR product from IDO1 mRNA was cloned into expression vector pET28a to obtain pET28a-IDO1 and confirmed using DNA sequencing (Cosmogenetech, Seoul, Korea). […] The expressed IDO1 protein was purified using Ni-NTA agarose (Qiagen, Valencia, CA) at 4 °C. The eluted IDO1 protein was dialysed using storage buffer (20 mM Tris-HCl buffer (pH 8.0 and 200 mM NaCl)). The purified IDO1 protein was analysed with SDS-PAGE.
The enzyme assays were performed with previous descripted in Takikawa et al.[23]. Briefly, 200 µL of the reaction mixture contained potassium phosphate buffer (50 mM, pH 6.5), ascorbic acid (20 mM), methylene blue (10 µM), catalase (10 mM), purified recombinant human IDO1 enzyme (5 µg/mL) and L-Trp (200 µM). The metabolites were serially diluted in dimethyl sulfoxide (DMSO, 0.5%, v/v) and transferred to a 96-well plates. […] The plates were centrifuged at 4000 rpm for 15 min to remove debris. Next, the supernatant (125 µL) from each well was transferred to a 96-well plates. p-dimethylaminobenzaldehyde (125 µL; 2%, v/v) in acetic acid was then added to each well, and the absorbance value of the plate was read at a wavelength of 480 nm using a SpectraMAX-190 ELISA reader (Molecular Devices, Sunnyvale, CA).

His-IDO1 (WT) = biological target: T2, His-IDO1 (WT) (Homo sapiens, UniProt P14902); test: Surface plasmon resonance (SPR) assay, His-IDO1 (WT); assay type: binding
T2 construct: The full-length of IDO1 gene was amplified by PCR; His tag; made in house; host or cells: Escherichia coli T7 strain, vector pET28a
T2 sequence (P14902 whole entry): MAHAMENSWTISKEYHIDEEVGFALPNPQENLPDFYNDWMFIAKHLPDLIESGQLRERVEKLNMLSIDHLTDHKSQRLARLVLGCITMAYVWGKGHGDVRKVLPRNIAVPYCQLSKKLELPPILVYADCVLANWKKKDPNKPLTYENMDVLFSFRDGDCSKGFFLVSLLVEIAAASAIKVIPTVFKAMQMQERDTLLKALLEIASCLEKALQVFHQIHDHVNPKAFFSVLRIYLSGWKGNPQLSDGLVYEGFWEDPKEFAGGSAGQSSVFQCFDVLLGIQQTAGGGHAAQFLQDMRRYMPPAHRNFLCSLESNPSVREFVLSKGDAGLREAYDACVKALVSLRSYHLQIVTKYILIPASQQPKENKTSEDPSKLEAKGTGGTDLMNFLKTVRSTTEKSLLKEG
Experimental: (§1) The SPR assay was performed with 10 mM stock solution and five serially diluted concentrations of KE (6) in PBS and 5% DMSO at 25 °C using a Reichert instrument (SR7500DC System, USA) using a sensor chip CM5 (GE Healthcare, Chicago, IL) (Woojung BSC Inc, Seoul, Korea). Amine coupling of His-IDO1 (WT and P314A) was performed with 0.2 M 1-ethyl-3-(3-dimethylaminopropyl)-carbodiimide, 0.05 M N-hydroxysuccinimide, and 1 M ethanolamine (ph 8.5, GE Healthcare, Chicago, IL). The results were analysed using Scrubber software (version 2.0, BioLogic Software, Mundelein, IL).

His-IDO1 (P314A) [5] = biological target: T3, His-IDO1 (P314A) (Homo sapiens, UniProt P14902, P314A); test: Surface plasmon resonance (SPR) assay, His-IDO1 (P314A); assay type: binding
T3 construct: The full-length of IDO1 gene was amplified by PCR; His tag; made in house
T3 sequence (P14902 whole entry P314A): as the sequence (P14902 whole entry) above, with P314A counted along it
Experimental: as §1
(§2) Point mutations were introduced using the Muta-Direct^TM mutagenesis kit (iNtRON, Seuol, Korea). Oligonucleotides for generation of Pro182 (P182A), Phe185 (F185A), double mutation (P182A and F185A), and Pro 314 (P314A) to alanine mutants (mutated residues are underlined) were as follows: • For P182A: 5′-[…]-3′, 5′-[…]-3′. • For F185A: 5′-[…]-3′, 5′-[…]-3′. • For double mutation (P182A and F185A): 5′-[…]-3′, 5′-[…]-3′. • For P314A: 5′- […]-3′, 5′- […]-3′.

His-IDO1 (P314A) [6] = biological target: T3, His-IDO1 (P314A); test: Mutagenesis assay: IDO1 enzyme assay with P314A mutant; assay type: biochemical; conditions: mutant form of His-IDO1 (P314A)
Experimental: The enzyme assays were performed with previous descripted in Takikawa et al.[23]. […]. The metabolites were serially diluted in dimethyl sulfoxide (DMSO, 0.5%, v/v) and transferred to a 96-well plates. The reaction was conducted at 37 °C for 1 h and stopped by adding 40 µL of trichloroacetic acid (30%); the solution was then heated at 65 °C for 15 min. The plates were centrifuged at 4000 rpm for 15 min to remove debris. Next, the supernatant (125 µL) from each well was transferred to a 96-well plates. p-dimethylaminobenzaldehyde (125 µL; 2%, v/v) in acetic acid was then added to each well, and the absorbance value of the plate was read at a wavelength of 480 nm using a SpectraMAX-190 ELISA reader (Molecular Devices, Sunnyvale, CA).
as §2

[7] = standard error in parentheses, read-out: Ka

T1 sequence (P14902 whole entry): as the sequence (P14902 whole entry) above

| SMILES | Ki (IDO1 [1]) [µM] | ΔTm at 30 µM (IDO1 [2]) [°C] | IC50 (IDO1 [3]) [µM] | IC50 (IDO1 [4]) [µM] | also measured |
| --- | --- | --- | --- | --- | --- |
| C=C(C)[C@H](CC=C(C)C)Cc1c(O)cc(OC)c2c1O[C@H](c1ccc(O)cc1OC)CC2=O [(2S)-2′-Methoxy kurarinone (MK, 5), (2S)-2'-methoxy kurarinone] | 13.7 ± 0.03 | 0.4 | 23.8 ± 1.6 | 31.4 ± 1.3 |  |
| CC(C)=CCc1c(O)c(CC=C(C)C)c2c(c1O)C(=O)C[C@@H](c1ccc(O)cc1O)O2 [Kushenol E (KE, 6), kushenol E] | 9.5 ± 0.6 | 5.7 | 4.3 ± 0.3 | 7.7 ± 6.2 | Kd (His-IDO1 (WT); 25 °C, PBS 5% DMSO): 6.5 ± 0.1 µM; kon (His-IDO1 (WT); [7]): 136 M⁻¹ s⁻¹; Kd (His-IDO1 (P314A) [5]; 25 °C, PBS 5% DMSO): 8.9 ± 0.2 µM; kon (His-IDO1 (P314A) [5]; [7]): 120 M⁻¹ s⁻¹; IC50 (His-IDO1 (P314A) [6]): 29.8 ± 1.8 µM |
| O=C1CC(c2ccc(O)cc2O)Oc2cc(O)cc(O)c21 (stereo not drawn) [Steppogenin, steppogenin, reference compound] |  |  |  |  | His-hIDO1 IC50 (IDO1 [4]): does not affect IDO1 inhibitory activity |
| C=C(C)[C@H](CC=C(C)C)Cc1c(O)cc(O)c2c1O[C@H](c1ccc(O)cc1O)CC2=O [Kushenol F (KF, 4), kushenol F] | 20.2 ± 3.1 | 1.5 | 28.3 ± 0.3 | 25.4 ± 4.4 |  |
| CC(C)=CCc1c(O)cc(O)c2c1OC(c1ccc(O)cc1)CC2=O (stereo not drawn) [Sophoraflavanone B (2), sophoraflavanone B] |  |  | 83.6 ± 10.8 | 19.3 ± 1.1 |  |
| CC(C)=CCc1c(O)cc(O)c2c(=O)c(O)c(-c3ccc(O)cc3)oc12 [Noranhydroicaritin (1), noranhydroicaritin] |  |  | 42.2 ± 3.5 | 23.5 ± 2.2 |  |
| C=C(C)[C@H](CC=C(C)C)Cc1c(O)cc(OC)c2c1O[C@H](c1ccc(O)cc1O)CC2=O [(−)-Kurarinone (3), (−)-kurarinone] |  |  | 74.9 ± 4.9 | 23.4 ± 1.3 |  |
